Assays:
Capan-1 tumors = assay: Capan-1 xenograft therapy; type: in vivo, mouse; conditions: 0.2 mg/kg SN-38 twice weekly x 4 weeks
Experimental: NCr female athymic nude (nu/nu) mice, 4 to 8 weeks old, and male Swiss-Webster mice, 10 weeks old, were purchased from Taconic Farms. Tolerability studies were performed in Cynomolgus monkeys (Macaca fascicularis; 2.5-4 kg male and female) by SNBL USA, Ltd. Animals were implanted subcutaneously with different human cancer cell lines. Tumor volume (TV) was determined by measurements in 2 dimensions using calipers, with volumes defined as: L×w^2/2, where L is the longest dimension of the tumor and w is the shortest. […] This dosing frequency reflected a consideration of the conjugate's serum half-life […], to allow a more continuous exposure to the ADC.
Statistics—Growth curves are shown as percent change in initial TV over time. Statistical analysis of tumor growth was based on area under the curve (AUC). Profiles of individual tumor growth were obtained through linear-curve modeling. An f-test was employed to determine equality of variance between groups before statistical analysis of growth curves. A 2-tailed t-test was used to assess statistical significance between the various treatment groups and controls, except for the saline control, where a 1-tailed t-test was used (significance at P≤0.05). Statistical comparisons of AUC were performed only up to the time that the first animal within a group was euthanized due to progression.

[1] = mouse, in vivo
Experimental: One group was injected intravenously with 20 μCi (250-μg protein) of ^111In-sacituzumab govitecan, whereas another group received 20 μCi (250-μg protein) of ^111In-hRS7 IgG. At various timepoints mice (5 per timepoint) were anesthetized, bled via intracardiac puncture, and then euthanized. Tumors and various tissues were removed, weighed, and counted by γ scintillation to determine the percentage injected dose per gram tissue (% ID/g). […] Pharmacokinetic analysis on blood clearance was performed using WinNonLin software (Parsight Corp.).

[2] = Tolerability in Cynomolgus monkeys; type: in vivo, Macaca fascicularis
Description: Dosages, times, and number of monkeys bled for evaluation of possible hematologic toxicities and serum chemistries are described in the Results.

MDA-MB-468 = assay: Cytotoxicity (MTS), Example 7, MDA-MB-468; type: cell-based, human; conditions: MDA-MB-468, 96 h
Experimental: One day prior to adding the ADC, cells were harvested from tissue culture and plated into 96-well plates at 2000 cells per well. […] Plates were incubated at 37° C. for 96 h. […] Growth inhibition was measured as a percent of growth relative to untreated cells using Microsoft Excel and Prism software (non-linear regression to generate sigmoidal dose response curves which yield IC50-values).

[3] = system: Trop-2+ human gastric carcinoma xenografts (NCI-N87); assay: Effect of DAR on efficacy, NCI-N87 xenograft; type: in vivo, mouse; conditions: for median survival time (MST): 2 treatments 7 days apart, 0.5 mg
Description: Effect of DAR on pharmacokinetics and anti-tumor efficacy in mice.

PARP = assay: Immunoblotting, apoptosis signaling, NCI-N87 and BxPC-3; type: cell-based, human; conditions: evident at 24 h, increased at 48 h
Experimental: Immunoblotting—Cells (2×10^6) were plated in 6-well plates overnight. […] Parental hRS7 was used as a control for the ADC. Cells were lysed in buffer containing 10 mM Tris, pH 7.4, 150 mM NaCl, protease inhibitors and phosphatase inhibitors (2 mM […], 10 mM NaF). A total of 20 μg protein was resolved in a 4-20% SDS polyacrylamide gel, transferred onto a nitrocellulose membrane and blocked by 5% non-fat milk in 1×TBS-T (Tris-buffered saline, 0.1% Tween-20) for 1 h at room temperature. Membranes were probed overnight at 4° C. with primary antibodies followed by 1-h incubation with antirabbit secondary antibody (1:2500) at room temperature. Signal detection was done using a chemiluminescence kit (Supersignal West Dura, Thermo Scientific; Rockford, IL) with the membranes visualized on a Kodak Image Station […]. Primary antibodies p21Waf1/Cip1 (Cat. No. 2947), Caspase-3 (Cat. No. 9665), Caspase-7 (Cat. No. 9492), Caspase-9 (Cat. No. 9502), PARP (Cat. No. 9542), 3-actin (Cat. No. 4967), pJNK1/2 (Cat. No. 4668), JNK (Cat. No. 9258), and goat anti-rabbit-HRP secondary antibody (Cat. No. 7074) were obtained from Cell Signal Technology (Danvers, MA).

[4] = system: NCI-N87 human gastric tumor xenografts; assay: Dose schedules and chronic dosing, NCI-N87 xenograft; type: in vivo, mouse
Description: In Vivo Therapeutic Studies—NCr female athymic nude (nu/nu) mice, 4-8 weeks old, were purchased from Taconic Farms (Germantown, NY). NCI-N87 gastric tumor xenografts were established by harvesting cells from tissue culture and making a final cell suspension 1:1 in matrigel (BD Bioscience; San Jose, CA), with each mouse receiving a total of 1×10^7 cells s.c. in the right flank. For BxPC-3. xenografts of 1 g were harvested, and a tumor suspension made in HBSS to a concentration of 40% tumor w/v. This suspension was mixed 1:1 with matrigel for a final tumor suspension of 20% w/v. […] For IHC, tumors were allowed to grow to approximately 0.5 cm^3 before the mice were euthanized and the tumors removed, formalin-fixed and paraffin-embedded. For therapy studies, mice were randomized into treatment groups and therapy begun when tumor volumes were approximately 0.25 cm^3.
Mice were euthanized and deemed to have succumbed to disease once tumors grew to greater than 1.0 cm^3 in size. […] Time to progression (TTP) was determined as time post-therapy initiation when the tumor grew more than 20% in size from its nadir.
A similar dose schedule experiment was performed in mice bearing NCI-N87 human gastric tumor xenografts (not shown). […] Likewise, in terms of overall survival, while all three dose schedules provided a significant survival benefit when compared to untreated control (P<0.0001), there were no differences between any of these three different schedules.
In all, four treatment cycles were administered to the animals.

BxPC-3 = assay: In vitro cytotoxicity, BxPC-3
Description: Cell lines, antibodies, and chemotherapeutics—All human cancer cell lines used in this study were purchased from the American Type Culture Collection.

IMMU-132
tumor growth vs untreated and hA20-CL2A-SN-38 (Capan-1 tumors): significantly inhibited tumor growth | tumor-free mice at end of study (Capan-1 tumors; day 140): 50% | amount in tumor vs hRS7 IgG [1]: similar | serum chemistries ([2]; 2x0.96 mg SN-38/kg): No abnormal values | weight loss ([2]; 2x0.96 mg SN-38/kg): ≤ 7.3% | histopathology, microscopic changes ([2]; 2x0.96 mg SN-38/kg, day 11): minimal to moderate | blood counts ([2]; 2x0.96 mg/kg, transient decreases, listed as sacituzumab govitecan): the values did not fall below normal ranges | deaths ([2]; 2x1.92 mg SN-38/kg, gastrointestinal complications and bone marrow suppression): 1 | extrapolated human dose ([2]; cynomolgus monkey, in vivo): ~0.3 mg/kg/dose | IC50 (MDA-MB-468): 3.9 nM | median survival time (MST) ([3]; DAR 1.64): 21 days | median survival time (MST) ([3]; DAR 3.28 (printed 3.38)): 25 days | tumor growth inhibition (AUC) ([3]; DAR 6.89, 0.5 mg twice weekly for two weeks vs DAR 3.28, 1 mg): inhibited tumor growth significantly more than tumor-bearing animals treated with the 3.28 DAR conjugate | median survival time (MST) ([3]; DAR 6.89): 39 days | PARP cleavage (PARP): mediated PARP cleavage | TTP ([4]; 0.5 mg once a week for two weeks, one week off, four cycles): 15.7 ± 11.1 days | treatment-related toxicities ([4]; all dosing scheme evaluations, body weight): no treatment-related toxicities were observed | increase in median survival vs control ADC ([4]; chronic dosing): 3 fold | median survival ([4]; chronic dosing, four cycles): 63 days | patients with long-term stable disease (metastatic PDC; 8/13 PDC patients): 62% | median TTP, CT assessable patients (metastatic PDC; 8.0 weeks estimated from last prior therapy): 12.7 wks | stable disease, number of patients (metastatic PDC; 13 assessable patients): 8 | response (metastatic PDC; case): stable disease by CT RECIST criteria | CA19-9 after treatment (metastatic PDC; case, from 15885 U/mL): 4418 U/mL | Alopecia (Grades 1-2), patients (metastatic PDC; in vivo): 5 of 9 | Grade 3-4 nausea or vomiting (metastatic PDC; in vivo): no patient | Phase 2 dose (metastatic PDC; in vivo): 8 to 10 mg/kg | median TTP, all 14 patients (metastatic PDC; in vivo): 11.9 wks | neutropenia ≥G3 (metastatic PDC; in vivo): 33% | patients with Grade 3 diarrhea (metastatic PDC; in vivo): Two | progressive disease by RECIST, patients (metastatic PDC; in vivo): Five | maximum decline in CA19-9 (metastatic PDC; person, 8 mg/kg days 1 and 8 of 21 day cycle): 72% | IC50 (BxPC-3): 4.03 nM
